# Source: patent publication US20090239868A1 (priority 2007, published 2009)
# Test system: TGF-β induced PAI-1 production
# Assay: TGF-β induced PAI-1 production in HepG2 cells (Human Serpin E1/PAI-1 DuoSet)
# Assay type: cell-based
# Protocol: HepG2 cells were seeded on a 96-well culture plate by 2×10^4 cells/well, and were incubated for 24 hours in the MEM medium containing 1% NEAA (Non-Essential Amino Acids), 1 mM pyruvate, and 10% FBS. Then, the medium was changed to a MEM medium containing 1% NEAA, 1 mM pyruvate and 1% FBS, and the cells were further incubated for 24 hours. Subsequently, after the medium was changed to a MEM medium containing 1% NEAA, 1 mM pyruvate and 1% FBS, and then the cells were treated with the test substances (final concentration: 1 μM or 0.1 μM) for one hour, TGF-β1 (final concentration: 1 ng/mL) was added and the cells were further incubated for 24 hours. As controls, a culture solution added TGF-β1 only, and a culture solution cultured without neither the test substances nor TGF-β1 were prepared. After the incubation, the PAI-1 amount was measured using Human Serpin E1/PAI-1 DuoSet (R&D Systems). The PAI-1 amount when treated with TGF-β1 only being “100%”, and the PAI-1 amount when treated without neither the test substances nor TGF-β1 being “0%”, the PAI-1 inhibition ratios of each test substance were calculated.
Compound,Inhibition Ratio (PAI-1) (Compound Concentration: 1 μM) [%],Inhibition Ratio (PAI-1) (Compound Concentration: 0.1 μM) [%]
COc1cc(NC(=O)c2cc(Cl)ccc2O)cc(-c2ccccc2)c1 [(53)],52.4,
O=C(Nc1cc(F)cc(C(F)(F)F)c1)c1cc(Cl)ccc1O [(37)],>90,
O=C(Nc1ccc(S(=O)(=O)C(F)(F)F)cc1)c1cc(Cl)ccc1O [(84)],>90,
Cc1ccc(C(=O)C(C)(C)C)cc1NC(=O)c1cc(Cl)ccc1O [(65)],85.5,
CC(C)(C)c1ccc(O)c(C(=O)Nc2cc(C(F)(F)F)cc(C(F)(F)F)c2)c1 [(11)],70.5,
O=C(Nc1cc(C(F)(F)F)cc(C(F)(F)F)c1)c1cc([N+](=O)[O-])ccc1O [(8)],85.9,52.8
O=C(Nc1cc(C(F)(F)F)cc(C(F)(F)F)c1)c1cc(-c2ccccc2)ccc1O [(17)],82.9,
O=C(Nc1ccc(F)c(F)c1)c1cc(Cl)ccc1O [(85)],84.0,
CC(C)(C)c1cc(NC(=O)c2cc(Cl)ccc2O)cc(C(C)(C)C)c1 [(51)],42.8,
O=C(Nc1ccc(SC(F)(F)F)cc1)c1cc(Cl)ccc1O [(83)],>90,
CCCCc1ccc(NC(=O)c2cc(Cl)ccc2O)cc1 [(78)],80.6,
O=C(Nc1cccc(SC(F)(F)F)c1)c1cc(Cl)ccc1O [(82)],>90,
CC(=O)Oc1ccccc1C(=O)Nc1cc(C(F)(F)F)cc(C(F)(F)F)c1 [(31)],75.2,
O=C(Nc1cc(Cl)cc(Cl)c1)c1ccc(Cl)cc1O [(48)],>90,
O=C(Nc1ccc(Cl)cc1)c1cc(Br)ccc1O [(45)],>90,
O=C(Nc1ccc(C2CCCCC2)cc1)c1cc(Cl)ccc1O [(74)],87.3,
COC(=O)c1ccc(O)c(C(=O)Nc2cc(C(F)(F)F)cc(C(F)(F)F)c2)c1 [(28)],>90,
CCCCCCc1ccc(NC(=O)c2cc(Cl)ccc2O)cc1 [(73)],>90,
O=C(Nc1cccc(C(F)(F)F)c1)c1cc(Cl)ccc1O [(67)],>90,
N#Cc1ccc(NC(=O)c2cc(Br)ccc2O)cc1C(F)(F)F [(39)],>90,
CC(C)c1cc(Br)cc(C(=O)Nc2cc(C(F)(F)F)cc(C(F)(F)F)c2)c1O [(99)],89.4,59.1

Compound,Inhibition Ratio (PAI-1) (Compound Concentration: 1 μM) [%],Inhibition Ratio (PAI-1) (Compound Concentration: 0.1 μM) [%]
O=C(Nc1cc(C(F)(F)F)cc(C(F)(F)F)c1)c1c(O)c(Cl)cc(Cl)c1Cl [(59)],>90,
Cc1cc(C)cc(NC(=O)c2cc(Br)ccc2O)c1 [(50)],66.0,
O=C(Nc1cc(C(F)(F)F)cc(C(F)(F)F)c1)c1cccc(-c2ccccc2)c1O [(97)],79.5,
O=C(Nc1ccc(OC(F)F)cc1)c1cc(Cl)ccc1O [(90)],>90,
O=C(Nc1cc(C(F)(F)F)cc(C(F)(F)F)c1)c1cc(I)ccc1O [(7)],>90,
O=C(Nc1ccc(C(F)(F)F)cc1)c1cc(Cl)ccc1O [(43)],>90,
CC(=O)c1ccc(O)c(C(=O)Nc2cc(C(F)(F)F)cc(C(F)(F)F)c2)c1 [(26)],46.8,
O=C(Nc1cccc(-c2ccccc2)c1)c1cc(Cl)ccc1O [(52)],81.0,
CC(C)(C#Cc1ccccc1)c1ccc(O)c(C(=O)Nc2cc(C(F)(F)F)cc(C(F)(F)F)c2)c1 [(15)],>90,
O=C(Nc1cc(Cl)cc(Cl)c1)c1ccccc1O [(47)],35.6,
N#Cc1ccc(O)c(C(=O)Nc2cc(C(F)(F)F)cc(C(F)(F)F)c2)c1 [(9)],>90,59.4
O=C(Nc1cccc(Cl)c1)c1cc(Br)ccc1O [(44)],82.4,
Cc1ccc(O)c(C(=O)Nc2cc(C(F)(F)F)cc(C(F)(F)F)c2)c1 [(10)],89.2,
Cc1ccc(-c2ccccc2)cc1NC(=O)c1cc(Cl)ccc1O [(66)],84.1,
O=C(Nc1cc(C(F)(F)F)cc(C(F)(F)F)c1)c1cccc(Cl)c1O [(61)],>90,
CCC(C)c1ccc(NC(=O)c2cc(Cl)ccc2O)cc1 (stereo not drawn) [(87)],89.6,
O=C(Nc1ccccc1Cl)c1cc(Cl)ccc1O [(77)],74.3,
O=C(Nc1ccc(OC(F)(F)F)cc1)c1cc(Cl)ccc1O [(70)],>90,
O=C(Nc1cc(C(F)(F)F)cc(C(F)(F)F)c1)c1cc(Br)cc(-c2ccccc2)c1O [(103)],>90,
O=C(Nc1cc(C(F)(F)F)cc(C(F)(F)F)c1)c1cc(F)ccc1O [(5)],>90,71.2
Cc1cc(Br)cc(C(=O)Nc2cc(C(F)(F)F)cc(C(F)(F)F)c2)c1O [(100)],>90,

Compound,Inhibition Ratio (PAI-1) (Compound Concentration: 1 μM) [%],Inhibition Ratio (PAI-1) (Compound Concentration: 0.1 μM) [%]
O=C(Nc1cc(C(F)(F)F)cc(C(F)(F)F)c1)c1ccc(-c2ccccc2)cc1O [(106)],>90,
O=C(Nc1cccc(C(F)(F)F)c1F)c1cc(Cl)ccc1O [(35)],>90,
O=C(Nc1ccc(F)c(C(F)(F)F)c1)c1cc(Cl)ccc1O [(36)],>90,
CCCCCCOc1ccc(S(C)(=O)=O)cc1NC(=O)c1cc(Cl)ccc1O [(64)],73.6,
Cc1ccc(C(=O)Nc2cc(C(F)(F)F)cc(C(F)(F)F)c2)c(O)c1 [(56)],>90,
CC(C)(C)c1cccc(NC(=O)c2cc(Cl)ccc2O)c1 [(92)],>90,
O=C(Nc1cc(C(F)(F)F)cc(C(F)(F)F)c1)c1cc(C(F)(F)C(F)(F)F)ccc1O [(20)],>90,
O=C(Nc1cc(C(F)(F)F)cc(C(F)(F)F)c1)c1c(O)cccc1F [(60)],38.1,
CC(C)(CCc1ccccc1)c1ccc(O)c(C(=O)Nc2cc(C(F)(F)F)cc(C(F)(F)F)c2)c1 [(18)],55.4,
O=C(Nc1ccc(-c2ccccc2)cc1)c1cc(Cl)ccc1O [(96)],71.0,
O=C(Nc1cc(C(F)(F)F)cc(C(F)(F)F)c1)c1cc(C(F)(F)F)ccc1O [(19)],>90,62.2
CC(=O)Oc1ccccc1C(=O)Nc1cc(Cl)cc(Cl)c1 [(54)],78.9,
O=C(Nc1cc(C(F)(F)F)cc(C(F)(F)F)c1)c1cc(Br)ccc1O [(6)],>90,82.3
O=C(Nc1cc(OCC(F)(F)F)cc(C(F)(F)F)c1)c1cc(Cl)ccc1O [(63)],79.5,
O=C(Nc1cc(Cl)c(Cl)c(Cl)c1)c1cc(Br)ccc1O [(49)],70.7,
O=C(Nc1cccc(S(=O)(=O)C(F)(F)F)c1)c1cc(Cl)ccc1O [(94)],>90,
O=C(Nc1cccc(OC(F)(F)F)c1)c1cc(Cl)ccc1O [(68)],>90,
Cc1c(NC(=O)c2cc(Cl)ccc2O)cccc1C(F)(F)F [(40)],>90,
CC(C)c1cccc(C(=O)Nc2cc(C(F)(F)F)cc(C(F)(F)F)c2)c1O [(98)],42.2,
CC(C)(/C=C/c1ccccc1)c1ccc(O)c(C(=O)Nc2cc(C(F)(F)F)cc(C(F)(F)F)c2)c1 [(14)],86.6,
O=C(Nc1cc(C(F)(F)F)cc(C(F)(F)F)c1)c1cc(Cl)cc(Cl)c1O [(57)],>90,
